Reference: patent publication US10435402B2, “Bicyclic compounds, compositions and medicinal applications thereof” (Advinus Therapeutics Limited, priority 2015, dated 2019)

target: T1, GAL4-DBD/RORγ-LBD (Homo sapiens, UniProt P51449); test: RORγt transactivation reporter assay (GAL4-DBD/RORγ-LBD, luciferase read out); assay type: cell-based; conditions: HEK293T cells, GAL4-UAS luciferase reporter, overnight (18-24 hours) incubation
T1 construct: expressed in transfected cells; host or cells: HEK293T
Method: RORγt Transactivation Reporter Assay Protocol: The inhibition of RORγt activity in cells was evaluated using a GAL4-UAS reporter system in HEK293T cells employing a luciferase read out. RORγt ligand binding domain (LBD) was cloned into the pFN26A (BIND) vector (Promega #[…]) containing yeast GAL4-DBD to form a RORγt LBD-GAL4 DBD fusion construct. This vector also contained a Renilla Luciferase reporter expressed under a SV40 promoter which was used as a control for transfection efficiency. A transcriptional reporter expression construct pGL4.35 (Promega #[…]) was used to monitor RORγt LBD-GAL4 activity. This construct contained nine repeats of GAL4 binding site/upstream activating sequence (UAS) controlling expression of a firefly luciferase reporter Luc2P. When transfected together in cells, the RORγ-LBD-DBD fusion protein drives expression of the luciferase reporter. For the assay, HEK293T cells were plated in a flat bottom 96 well plate at a density of 25,000 cells/well/100 ul of DMEM high glucose medium (Sigma D5648) containing 10% FBS and antibiotic. Cells were incubated overnight at 37 C/5% CO2. The next day, medium from the wells was removed and replaced with 30 ul of OptiMEM® (Invitrogen #31985070). 100 ng each of pBIND RORγ LBD-DBD and pGL4.35 reporter plasmids was transfected in HEK293T cells using Lipofectamine 2000 (Invitrogen #11668-019) where 10 ul of transfection complex was added to the each well. Control transfections were performed with an empty pF[…] vector and pGL4.35 vector. The transfected cells were incubated for 5 hours at 37 C/5% CO2. After incubation, 40 ul of DMEM high glucose medium without FBS, with antibiotic was added to each well. A 10 mM stock solution of test compound prepared in 100% DMSO was first diluted in DMSO and then in DMEM medium without FBS to give the required final compound concentration. Concentration of DMSO in the test compound solution was 0.4%. 20 ul of diluted compound solution was added to each well. Cells were incubated overnight (18-24 hours) at 37 C/5% CO2. The next day, luciferase assay was performed using the Dual Glo® Luciferase Assay System (Promega #E2940). Briefly, medium was removed from the wells and replaced with 40 ul 1× Passive Lysis Buffer (Promega #E1941). Plate was incubated at room temperature on a plate shaker at 1000 rpm for 40 min. After incubation, plate was centrifuged at 1000 rpm for 2 min. 20 ul of the lysate was transferred from each well to that of solid white half area 96 well plate (Costar #3693). Dual Glo® Reagent was thawed to room temperature and 20 ul was added to each well containing lysate. Plate was centrifuged at 1000 rpm/2 min and incubated at room temperature on a plate shaker at 600 rpm/25 min. Firefly luciferase signal was measured on a Tecan Safire2. After measurement, 20 ul of Dual Glo® Stop Glo® Reagent was added to each well. Plate was centrifuged at 1000 rpm/2 min and incubated at room temperature on a plate shaker at 600 rpm/25 min. Renilla luciferase signal was measured on Tecan Safire 2. IC50 values for test compounds were calculated from the normalized luciferase signal data using GraphPad Prism software.

T1 sequence (P51449 269-508 limits assumed): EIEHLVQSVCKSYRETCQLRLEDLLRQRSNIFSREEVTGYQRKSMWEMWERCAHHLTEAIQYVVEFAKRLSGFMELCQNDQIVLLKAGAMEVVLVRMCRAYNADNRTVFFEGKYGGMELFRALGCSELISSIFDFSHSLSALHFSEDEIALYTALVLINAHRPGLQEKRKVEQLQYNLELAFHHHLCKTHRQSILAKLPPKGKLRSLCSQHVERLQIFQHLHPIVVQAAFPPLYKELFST
T1 sequence (P04386 1-147 partner limits assumed): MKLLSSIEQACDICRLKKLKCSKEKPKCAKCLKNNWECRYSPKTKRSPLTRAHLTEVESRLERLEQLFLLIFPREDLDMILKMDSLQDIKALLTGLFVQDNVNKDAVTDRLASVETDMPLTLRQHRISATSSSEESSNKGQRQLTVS

IC50, > 5000 nM:
CC(C)(C)OC(=O)N1CC=C(c2cc(C(=O)c3c(Cl)cccc3Cl)n3ccccc23)CC1 [Example A-54, tert-butyl 4-[3-(2,6-dichlorobenzoyl)indolizin-1-yl]-3,6-dihydro-2H-pyridine-1-carboxylate]
CC(C)(C)OC(=O)N1CCC=C(c2cc(C(=O)c3c(Cl)ccc(F)c3Cl)n3ccccc23)C1 [Example A-55, tert-butyl 5-[3-(2,6-dichloro-3-fluoro-benzoyl)indolizin-1-yl]-3,6-dihydro-2H-pyridine-1-carboxylate]
O=C(O)c1cccc(-c2cc(C(=O)c3c(Cl)cccc3C(F)(F)F)n3ccccc23)c1 [Example A-57, 3-[3-[2-chloro-6-(trifluoromethyl)benzoyl]indolizin-1-yl]benzoic acid]

IC50, < 500 nM:
CCOC(=O)c1ccc(-c2cc(C(=O)c3c(Cl)cccc3C3CC3)n3ccccc23)cc1 [Example A-31, ethyl 4-[3-(2-chloro-6-cyclopropyl-benzoyl)indolizin-1-yl]benzoate]
CCOC(=O)c1ccc(-c2cc(C(=O)c3c(F)cccc3Cl)n3cccc(F)c23)cc1 [Example A-32, ethyl 4-[3-(2-chloro-6-fluoro-benzoyl)-8-fluoro-indolizin-1-yl]benzoate]
O=C(O)c1ccc(-c2cc(C(=O)c3c(F)cccc3Cl)n3cccc(F)c23)cc1 [Example A-34, 4-[3-(2-chloro-6-fluoro-benzoyl)-8-fluoro-indolizin-1-yl]benzoic acid]
O=C(O)c1ccc(-c2cc(C(=O)c3c(F)cccc3Cl)n3cccc(F)c23)c(F)c1 [Example A-35, 4-[3-(2-chloro-6-fluoro-benzoyl)-8-fluoro-indolizin-1-yl]-3-fluoro-benzoic acid]
CCOC(=O)c1ccc(-c2cc(C(=O)c3c(F)cccc3F)n3ccccc23)cc1 [Example A-36, ethyl 4-[3-(2,6-difluorobenzoyl)indolizin-1-yl]benzoate]
CCOC(=O)c1ccc(-c2cc(C(=O)c3c(F)cccc3F)n3ccccc23)c(F)c1 [Example A-38, ethyl 4-[3-(2,6-difluorobenzoyl)indolizin-1-yl]-3-fluoro-benzoate]
O=C(O)c1ccc(-c2cc(C(=O)c3c(F)cccc3F)n3ccccc23)c(F)c1 [Example A-39, 4-[3-(2,6-difluorobenzoyl)indolizin-1-yl]-3-fluoro-benzoic acid]
CCOC(=O)c1ccc(-c2cc(C(=O)c3c(F)ccc(F)c3F)n3ccccc23)c(F)c1 [Example A-41, ethyl 3-fluoro-4-[3-(2,3,6-trifluorobenzoyl)indolizin-1-yl]benzoate]
O=C(O)c1ccc(-c2cc(C(=O)c3c(F)ccc(F)c3F)n3ccccc23)cc1 [Example A-42, 4-[3-(2,3,6-trifluorobenzoyl)indolizin-1-yl]benzoic acid]
O=C(O)c1ccc(-c2cc(C(=O)c3c(Cl)ccc(F)c3Cl)n3cccc(F)c23)cc1 [Example A-43, 4-[3-(2,6-dichloro-3-fluoro-benzoyl)-8-fluoro-indolizin-1-yl]benzoic acid]
O=C(O)c1ccc(-c2cc(C(=O)c3c(F)ccc(F)c3F)n3ccccc23)c(F)c1 [Example A-44, 3-fluoro-4-[3-(2,3,6-trifluorobenzoyl)indolizin-1-yl]benzoic acid]
CCOC(=O)c1ccc(-c2cc(C(=O)c3c(F)cccc3F)n3cccc(F)c23)cc1 [Example A-45, ethyl 4-[3-(2,6-difluorobenzoyl)-8-fluoro-indolizin-1-yl]benzoate]
CCOC(=O)c1ccc(-c2cc(C(=O)c3c(F)cccc3F)n3cccc(F)c23)c(F)c1 [Example A-46, ethyl 4-[3-(2,6-difluorobenzoyl)-8-fluoro-indolizin-1-yl]-3-fluoro-benzoate]
O=C(O)c1ccc(-c2cc(C(=O)c3c(F)cccc3F)n3cccc(F)c23)cc1 [Example A-47, 4-[3-(2,6-difluorobenzoyl)-8-fluoro-indolizin-1-yl]benzoic acid]
O=C(O)c1ccc(-c2cc(C(=O)c3c(F)cccc3F)n3cccc(F)c23)c(F)c1 [Example A-48, 4-[3-(2,6-difluorobenzoyl)-8-fluoro-indolizin-1-yl]-3-fluoro-benzoic acid]
O=C(O)c1ccc(-c2cc(C(=O)c3c(Cl)ccc(F)c3Cl)n3cccc(F)c23)c(F)c1 [Example A-49, 4-[3-(2,6-dichloro-3-fluoro-benzoyl)-8-fluoro-indolizin-1-yl]-3-fluoro-benzoic acid]
CCOC(=O)c1ccc(-c2cc(C(=O)c3c(Cl)ccc(F)c3Cl)n3ccccc23)cc1 [Example A-56, ethyl 4-[3-(2,6-dichloro-3-fluoro-benzoyl)indolizin-1-yl]benzoate]
O=C(O)c1ccc(-c2cc(C(=O)c3c(Cl)cccc3C(F)(F)F)n3cccc(Cl)c23)cc1 [Example A-58, 4-[8-chloro-3-[2-chloro-6-(trifluoromethyl)benzoyl]indolizin-1-yl]benzoic acid]
O=C(O)c1ccc(-c2cc(C(=O)c3c(Cl)cccc3C(F)(F)F)n3cccc(Cl)c23)c(F)c1 [Example A-59, 4-[8-chloro-3-[2-chloro-6-(trifluoromethyl)benzoyl]indolizin-1-yl]-3-fluoro-benzoic acid]
O=C(O)c1ccc(-c2cc(C(=O)c3c(Cl)cccc3C(F)(F)F)n3ccccc23)cc1F [Example A-60, 4-[3-[2-chloro-6-(trifluoromethyl)benzoyl]indolizin-1-yl]-2-fluoro-benzoic acid]
O=C(O)c1ccc(-c2cc(C(=O)c3c(Cl)cccc3Cl)n3cccc(C(F)(F)F)c23)cc1 [Example A-61, 4-[3-(2,6-dichlorobenzoyl)-8-(trifluoromethyl)indolizin-1-yl]benzoic acid]
CCOC(=O)c1ccc(-c2cc(C(=O)c3c(Cl)cccc3Cl)n3cccc(C(F)(F)F)c23)cc1 [Example A-62, ethyl 4-[3-(2,6-dichlorobenzoyl)-8-(trifluoromethyl)indolizin-1-yl]benzoate]
CCOC(=O)c1ccc(-c2cc(C(=O)c3c(Cl)cccc3Cl)n3cc(C(F)(F)F)ccc23)cc1 [Example A-64, ethyl 4-[3-(2,6-dichlorobenzoyl)-6-(trifluoromethyl)indolizin-1-yl]benzoate]
O=C(c1c(Cl)cccc1C(F)(F)F)c1cc(C2=CCC(C(=O)O)CC2)c2ccccn12 (stereo not drawn) [Example A-65, 4-[3-[2-chloro-6-(trifluoromethyl)benzoyl]indolizin-1-yl]cyclohex-3-ene-1-carboxylic acid]
CCOC(=O)c1ccc(-c2c(F)c(C(=O)c3c(Cl)cccc3Cl)n3ccccc23)cc1 [Example B-1, Ethyl 4-[3-(2,6-dichlorobenzoyl)-2-fluoro-indolizin-1-yl]benzoate]
O=C(O)c1ccc(-c2c(F)c(C(=O)c3c(Cl)cccc3Cl)n3ccccc23)cc1 [Example B-2, 4-[3-(2,6-dichlorobenzoyl)-2-fluoro-indolizin-1-yl]benzoic acid]
COC(=O)c1ccc(-c2c(F)c(C(=O)c3c(Cl)cccc3Cl)n3ccccc23)c(F)c1 [Example B-3, methyl 4-[3-(2,6-dichlorobenzoyl)-2-fluoro-indolizin-1-yl]-3-fluoro-benzoate]

IC50, < 5000 nM:
O=C(O)c1ccc(-c2cc(C(=O)c3c(Cl)cccc3Br)n3ccccc23)cc1 [Example A-50, 4-[3-(2-bromo-6-chloro-benzoyl)indolizin-1-yl]benzoic acid]
O=C(O)c1ccc(-c2cc(C(=O)c3c(Cl)cccc3Cl)n3cc(C(F)(F)F)ccc23)cc1 [Example A-63, 4-[3-(2,6-dichlorobenzoyl)-6-(trifluoromethyl)indolizin-1-yl]benzoic acid]

IC50, < 1000 nM:
O=C(O)c1ccc(-c2cc(C(=O)c3c(Cl)cccc3Br)n3ccccc23)c(F)c1 [Example A-52, 4-[3-(2-bromo-6-chloro-benzoyl)indolizin-1-yl]-3-fluoro-benzoic acid]
